Source: patent publication US10206394B2, “Herbicidal compounds” (Syngenta Participations AG, priority 2014, dated 2019)
Where two headings read alike, the source gives them in different places.

Assays:
Assay in all cases: Glasshouse assay for herbicidal activity (pre- and post-emergence), percentage phytotoxicity
Assay type in all cases: in vivo
Avena fatua (AVEFA) = conditions: Avena fatua, rate 250 g/ha
Outline: (§1)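 Seeds were sown in standard soil in pots and grown one day (pre-emergence) or about 12 days (post-emergence) before herbicide application. Plants were kept at 24/18 °C (warm-climate) or 20/16 °C (cool-climate) day/night, 16 h light, 65% humidity, watered twice daily, and damage was scored visually at 15 DAA (POST) or 20 DAA (PRE).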

Lolium perenne (LOLPE) = conditions: Lolium perenne, rate 250 g/ha
Outline: as §1

[1] = tested on: Alopecurus myosuroides (ALOMY); conditions: Alopecurus myosuroides, rate 250 g/ha
Outline: as §1

[2] = tested on: Echinochloa crus-galli (ECHCG); conditions: Echinochloa crus-galli, rate 250 g/ha
Outline: as §1

[3] = post-emergence, 360 h, POST-emergence, visual score 15 DAA (100%=total damage, 0%=no damage), read-out: Post-emergence herbicidal activity (percentage phytotoxicity) AVEFA POST
[4] = pre-emergence, 480 h, PRE-emergence, visual score 20 DAA (100%=total damage, 0%=no damage), read-out: Pre-emergence herbicidal activity (percentage phytotoxicity) AVEFA PRE
[5] = post-emergence, 360 h, POST-emergence, visual score 15 DAA (100%=total damage, 0%=no damage), read-out: Post-emergence herbicidal activity (percentage phytotoxicity) LOLPE POST
[6] = pre-emergence, 480 h, PRE-emergence, visual score 20 DAA (100%=total damage, 0%=no damage), read-out: Pre-emergence herbicidal activity (percentage phytotoxicity) LOLPE PRE
[7] = post-emergence, 360 h, POST-emergence, visual score 15 DAA (100%=total damage, 0%=no damage), read-out: Post-emergence herbicidal activity (percentage phytotoxicity) ALOMY POST
[8] = pre-emergence, 480 h, PRE-emergence, visual score 20 DAA (100%=total damage, 0%=no damage), read-out: Pre-emergence herbicidal activity (percentage phytotoxicity) ALOMY PRE
[9] = post-emergence, 360 h, POST-emergence, visual score 15 DAA (100%=total damage, 0%=no damage), read-out: Post-emergence herbicidal activity (percentage phytotoxicity) ECHCG POST
[10] = pre-emergence, 480 h, PRE-emergence, visual score 20 DAA (100%=total damage, 0%=no damage), read-out: Pre-emergence herbicidal activity (percentage phytotoxicity) ECHCG PRE

| Compound | pest or weed control at 250 g/ha (Avena fatua (AVEFA); [3]) [%] | pest or weed control at 250 g/ha (Avena fatua (AVEFA); [4]) [%] | pest or weed control at 250 g/ha (Lolium perenne (LOLPE); [5]) [%] | pest or weed control at 250 g/ha (Lolium perenne (LOLPE); [6]) [%] | pest or weed control at 250 g/ha [1, 7] [%] | pest or weed control at 250 g/ha [1, 8] [%] | pest or weed control at 250 g/ha [2, 9] [%] | pest or weed control at 250 g/ha [2, 10] [%] |
| --- | --- | --- | --- | --- | --- | --- | --- | --- |
| C=C(C)CNC(=O)CC1CC(=O)C(c2c(C)cc(-c3ccc(Br)cn3)cc2C)C1=O (stereo not drawn) [Compound B298] | 100 | 90 | 90 | 90 | 100 | 90 | 100 | 100 |
| Cc1cc(-c2ccc(Br)cn2)cc(C)c1C1C(=O)CC(CC(=O)N2CCOCC2)C1=O (stereo not drawn) [Compound B299] | 90 | 90 | 100 | 100 | 90 | 90 | 100 | 100 |
| C=CC(C)NC(=O)CC1CC(=O)C(c2c(C)cc(-c3ncc(Cl)cc3F)cc2C)C1=O (stereo not drawn) [Compound B300] | 100 | 100 | 100 | 100 | 100 | 100 | 100 | 100 |
| C=CC(C)NC(=O)CC1CC(=O)C(c2c(C)cc(Br)cc2C)C1=O (stereo not drawn) [Compound B301] | 70 | 50 | 50 | 70 | 70 | 80 | 70 | 60 |
| Cc1cc(-c2ncc(F)cn2)cc(C)c1C1C(=O)CC(CC(=O)NC/C=C/Cl)C1=O (stereo not drawn) [Compound B302] | 100 | 100 | 100 | 100 | 100 | 100 | 100 | 100 |
| C/C=C/CNC(=O)CC1CC(=O)C(c2c(C)cc(-c3ncc(F)cn3)cc2C)C1=O (stereo not drawn) [Compound B303] | 100 | 80 | 100 | 80 | 100 | 90 | 100 | 100 |
| C=C(F)CNC(=O)CC1CC(=O)C(c2c(C)cc(-c3ncc(F)cc3F)cc2C)C1=O (stereo not drawn) [Compound B304] | 100 | 100 | 100 | 100 | 100 | 100 | 100 | 90 |
| CCNC(=O)CC1CC(=O)C(c2c(C)cc(-c3ncc(Cl)cn3)cc2C)C1=O (stereo not drawn) [Compound B305] | 100 | 100 | 100 | 100 | 100 | 100 | 100 | 100 |
| CCNC(=O)CC1CC(=O)C(c2c(C)cc(-c3ccc(Cl)cn3)cc2C)C1=O (stereo not drawn) [Compound B306] | 100 | 100 | 100 | 100 | 100 | 100 | 100 | 100 |
